The text below walks through data of US8906909B2 (Curis, Inc., priority 2009, dated 2014).

Some results are limits rather than exact numbers.

One assay concerns Sk-Mel-28 cells. Put plainly: Cell proliferation assay Method A (ATPlite), Sk-Mel-28. Format: cell-based. The conditions noted are these: Homo sapiens, 72 hours, read-out: antiproliferative activity IC50, Sk-Mel-28. In outline:
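Cells seeded at 5,000–10,000 per well with graded compound concentrations and cultured 72 h in 0.5% fetal bovine serum. Growth inhibition read as cellular ATP content by firefly luciferase luminescence (ATPlite).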

Assay [1] has as its system HDACs (HeLa cell nuclear extracts). The experiment in a line: HDAC enzymatic activity, Biomol Color de Lys system. Format: biochemical. In a few lines:
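IC50 from sigmoidal dose-response fits of fluorescence (Ex 350–380, Em 440–460 nm). Compounds in DMSO dilution series incubated 1 h at 25 °C with HeLa nuclear extract HDACs and colorimetric substrate, pH 8.0 Tris/Cl buffer with NaCl, KCl, MgCl2, before developer termination.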

For a further assay, the system named is MDA-MB-468 cells. The experiment in a line: Cell proliferation assay Method B, MDA-MB-468. Type of assay: cell-based. The conditions noted are these: Homo sapiens, Breast, Method B, 72 hours, read-out: antiproliferative activity IC50, MDA-MB-468. In outline:
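Serum-reduced (0.5% FBS) proliferation format: compounds at various concentrations, 72 h incubation, then CellTiter-Glo ATP luminescence as the growth-inhibition measure.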

Another assay concerns OPM-2 cells. The experiment in a line: Cell proliferation assay Method B, OPM-2. Format: cell-based. The conditions noted are these: Homo sapiens, Multiple Myeloma, 72 hours, read-out: antiproliferative activity IC50, OPM-2. The protocol:
(§1) Cancer cell lines were plated at 5,000 to 10,000 per well in 96-well flat bottomed plates with various concentration of compounds. The cells were incubated with compounds for 72 hours in the presence of 0.5% of fetal bovine serum. Growth inhibition was accessed by adenosine triphosphate (ATP) content assay using Promega CellTiter-Glo kit. Promega CellTiter-Glo kit is an ATP monitoring system based on firefly luciferase. Briefly, 16 μl of mammalian cell lysis and substrate solution was added to 84 μl of culture medium per well to lyse the cells and stabilize the ATP. The mixture was shaken and incubated for 30 minutes and subsequently the luminescence was measured.

In a further assay the test system is LN-Cap cells. Put plainly: Cell proliferation assay Method B, LN-Cap. The conditions noted are these: Homo sapiens, LNCaP, Prostate, 72 hours, read-out: antiproliferative activity IC50, LN-Cap. Type of assay: cell-based. The protocol: as §1
A further assay deals with H292 cells. Put plainly: Cell proliferation assay Method B, H292. Format: cell-based. The conditions noted are these: Homo sapiens, NCI-H292, NSCLC, 72 hours, read-out: antiproliferative activity IC50, H292. The protocol:
as §1

For another assay, the system named is OVCAR-5 cells. The experiment in a line: Cell proliferation assay Method B, OVCAR-5. Format: cell-based. The conditions noted are these: Homo sapiens, Ovarian, 72 hours, read-out: antiproliferative activity IC50, OVCAR-5. The method, then:
as §1

For another assay, the system named is H460 cells. The experiment in a line: Cell proliferation assay Method B, H460. The conditions noted are these: Homo sapiens, NCI-H460, NSCLC, 72 hours, read-out: antiproliferative activity IC50, H460. Type of assay: cell-based. The method, then:
as §1

The next assay has as its system CaPan2 cells. The experiment in a line: Cell proliferation assay Method B, CaPan2. Type of assay: cell-based. The conditions noted are these: Homo sapiens, Capan-2, Pancreas, 72 hours, read-out: antiproliferative activity IC50, CaPan2. The protocol:
as §1

In another assay the test system is Calu6 cells. Put plainly: Cell proliferation assay Method B, Calu6. Format: cell-based. The conditions noted are these: Homo sapiens, Calu-6, NSCLC, 72 hours, read-out: antiproliferative activity IC50, Calu6. The protocol:
as §1

In the next assay the test system is glioblastoma xenografts. The conditions noted are these: oral dosage; Folkes et al. 2008; cited from earlier work.
In a further assay the test system is CFPAC-1 cells. The experiment in a line: Cell proliferation assay Method B, CFPAC-1. Format: cell-based. The conditions noted are these: Homo sapiens, Pancreas, 72 hours, read-out: antiproliferative activity IC50, CFPAC-1. The protocol: as §1

What is called IC50 is the point on the concentration scale where inhibition reaches its midpoint. In the case of `CN(Cc1cc2nc(-c3ccc(N)cc3)nc(N3CCOCC3)c2s1)c1ncc(C(=O)NO)cn1` [Compound 150, 2-(((2-(4-aminophenyl)-4-morpholinothieno[3,2-d]pyrimidin-6-yl)methyl)(methyl)amino)-N-hydroxypyrimidine-5-carboxamide], the figures for the concentration for half-maximal inhibition (IC50) (in the assay with Sk-Mel-28 cells; in assay [1]; in the assay with MDA-MB-468 cells) were less than 0.1 µM, less than 0.1 µM and 0.01 to 0.1 µM, respectively.
For `CS(=O)(=O)N1CCN(Cc2cc3nc(-c4cccc5[nH]ncc45)nc(N4CCOCC4)c3s2)CC1` [GDC-0941, reference compound], the IC50 in the assay on OPM-2 cells was 0.1 to 1 µM; in the assay with LN-Cap cells, 0.1 to 1 µM; in the assay with H292 cells it was 1 to 10 µM; with OVCAR-5 cells, 0.1 to 1 µM; in the assay with H460 cells, greater than 10 µM; in the assay on CaPan2 cells, greater than 10 µM. In addition, the concentration for half-maximal inhibition (IC50) in the assay with Calu6 cells and in the assay on CFPAC-1 cells was greater than 10 µM throughout. Moreover, the “tumor suppression in glioblastoma xenografts” value in the assay with glioblastoma xenografts is on record as “tumor suppression”.
